According to article PMC6447718, “PACAP-38 and PACAP(6–38) Degranulate Rat Meningeal Mast Cells via the Orphan MrgB3-Receptor” (Frontiers in Cellular Neuroscience, 2019):
Entries after “also recorded” stand apart in the source; their conditions may differ. Ends that are not written are not given here.

What was measured:
[1] = tested on: rat peritoneal mast cells; conditions: rat peritoneal mast cells; ref Baun et al., 2012; cited from earlier work
From the text: Inspired by clinical findings, we have previously characterized the degranulating effect of various PACAP-analogues on isolated rat peritoneal mast cells. Based on the expectation that degranulation is mediated through the PAC1-receptor, we found an unpredicted order of potency (Baun et al., [2012]).

[2] = tested on: PAC1-receptor (Rattus Norvegicus Adcyap1r1 variant 5, null-splice variant); assay: Antagonism of PACAP-38-induced currents in PAC1-receptor-expressing oocytes (TEVC); assay type: cell-based
From the text: DNA of the coding region of Rattus Norvegicus Adcyap1r1 variant 5 (NM_001270582.1) encoding the null-splice variant (short N-terminal and neither exon 14 or 15) of the PAC1-receptor (Vector: EX-Rn10199-M03) was ordered from GeneCopoeia. DNA encoding the RGD1560730 gene (XM_006229262.3, GenScript), was cloned into the pXOOM vector as previously described (Jespersen et al., [2002]). DNA was purified using Plasmid DNA Purification NucleoBond Xtra Midi-kit (Macherey-Nagel). […] Extracted plasmids were linearized down-stream the poly(A) segment using the XhoI restriction enzyme (New England Biolabs, Ipswich, MA, USA). […] Transcribed RNA integrity was assessed by agarose gel electrophoresis.
Stage V and VI defolliculated Xenopus laevis oocytes were purchased from EcoCyte Bioscience (Dortmund, Germany) and kept in Kulori medium (90 mM NaCl, 4 mM KCl, 1 mM MgCl2, 1 mM CaCl2, and 5 mM Hepes, pH 7.4). […] Currents were measured after 2–5 days using a conventional two-electrode-voltage clamp (TEVC). […] Current amplitude in absence or presence of ligands were analyzed using pClamp 10.2 software (Molecular Devices). […]
Concentration-response curves for both oocytes and dural mast cells were analyzed for overall effects of PACAP-38 and -27 by two-way analyses of variance (ANOVA) followed by Sidak’s test for multiple pairwise comparisons. […]

rat meningeal mast cells = assay: Mast cell degranulation in hemi-skull preparations (dura mater, toluidine blue staining, microscopic count); assay type: cell-based, rat (male Sprague-Dawley)
Protocol: Mast cell degranulation was performed as previously described (Pedersen et al., [2015]). In brief, skulls were cut mid-sagittal and the brain halves were removed, leaving the dura mater undisturbed. This was followed by immediate addition of either 350 μl 0.1, 1 or 10 μM PACAP-38 (custom synthesis by Caslo Laboratory ApS, Lyngby, Denmark) or vehicle (saline) in phosphate buffered saline (PBS). After 30 s incubation, the reactions were terminated, and the skulls were fixated in 4% paraformaldehyde in phosphate buffered saline (PBS; Glostrup Hospital Pharmacy, Denmark). The dura mater was dissected from the skull, whole mounted on slides, and mast cells were visualized by staining with 0.1% acidified toluidine blue (Sigma Aldrich, Germany). Tissues were dehydrated in graded alcohols prior to cover slip mounting. The level of mast cell degranulation was evaluated by 400× magnification (Nikon Eclipse Ni microscope) by a researcher blinded to the treatment and was counted in 10 consecutive fields along the stem part of the middle meningeal artery. Mast cells were considered degranulated if an extensive dispersion of more than 10 extruded granules were localized outside the cell or if an extensive loss of staining gave the cell a “ghostly” look.
(§1) Concentration-response curves for both oocytes and dural mast cells were analyzed for overall effects of PACAP-38 and -27 by two-way analyses of variance (ANOVA) followed by Sidak’s test for multiple pairwise comparisons. Effects of PAC1-receptor ligands on mast cell degranulation or on receptor-expressing oocytes were analyzed with a one-way ANOVA followed by Tukey’s multiple comparisons test. The effect of PACAP-38 and PACAP(6–38) on MrgB3-expressing oocytes were analyzed by an unpaired two-tailed t-test. Differences between groups were considered significant when p < 0.05 and data are presented as mean with standard error of the mean (±SEM). GraphPad Prism 7 (GraphPad Prism Software, San Diego, CA, USA) was used for statistical analysis.

[3] = tested on: PAC1-receptor (Rattus Norvegicus Adcyap1r1 variant 5, null-splice variant); assay type: cell-based
From the text: (§2) DNA of the coding region of Rattus Norvegicus Adcyap1r1 variant 5 (NM_001270582.1) encoding the null-splice variant (short N-terminal and neither exon 14 or 15) of the PAC1-receptor (Vector: EX-Rn10199-M03) was ordered from GeneCopoeia. DNA encoding the RGD1560730 gene (XM_006229262.3, GenScript), was cloned into the pXOOM vector as previously described (Jespersen et al., [2002]). DNA was purified using Plasmid DNA Purification NucleoBond Xtra Midi-kit (Macherey-Nagel). […] Extracted plasmids were linearized down-stream the poly(A) segment using the XhoI restriction enzyme (New England Biolabs, Ipswich, MA, USA). RNA was in vitro transcribed by synthetization from the T7 RNA polymerase promoter using the mMessenger mMachine kit (Ambion) according to manufacturer’s protocol. Messenger RNA was purified using the MEGAclear kit (Ambion). Transcribed RNA integrity was assessed by agarose gel electrophoresis.
(§3) Stage V and VI defolliculated Xenopus laevis oocytes were purchased from EcoCyte Bioscience (Dortmund, Germany) and kept in Kulori medium (90 mM NaCl, 4 mM KCl, 1 mM MgCl2, 1 mM CaCl2, and 5 mM Hepes, pH 7.4). Oocytes were micro-injected with 50 nl mRNA solution containing 30 ng RNA per oocyte and incubated at 19°C. Currents were measured after 2–5 days using a conventional two-electrode-voltage clamp (TEVC). The oocytes were placed in a 200 μl chamber and continuously exposed to a flow of Kulori medium with or without ligands (1 ml/min) while impaled with both a current and a voltage electrode filled with 3 M KCl and connected to an Oocyte Clamp Amplifier [Warner Instruments Corp. (OC-725 B) and a PC-interface (Digidata1440A, Molecular Devices)]. Current amplitude in absence or presence of ligands were analyzed using pClamp 10.2 software (Molecular Devices). All experiments were performed with oocyte membrane voltages constantly clamped to −70 mV and the temperature was kept between 19 and 22°C. In activation experiments, non-responding as well as low-responding (<10 nA) oocytes were excluded from the dataset. Ligands PACAP-38, PACAP-27, PACAP(6–38) were custom synthetized by Caslo (Lyngby, Denmark) while maxadilan was purchased from Bachem (Bubendorf, Switzerland).
as §1

[4] = tested on: MrgB3-receptor (RGD1560730); assay: Two-electrode voltage clamp on MrgB3-receptor-expressing Xenopus laevis oocytes; assay type: cell-based, rat; conditions: 1–10 μM, holding potential −70 mV
From the text: as §2, §3, §1

VPAC1 = conditions: cited from earlier work
From the text: (§4) Pituitary adenylate cyclase-activating peptide-38 (PACAP-38) is a 38-amino acid neuropeptide located in both sensory and parasympathetic perivascular nerve fibers (Moller et al., [1993]; Mulder et al., [1994]). A C-terminal truncated 27-amino acid (PACAP-27) version is endogenously present as well but is less abundant (Miyata et al., [1990]; Arimura et al., [1991]; Ogi et al., [1993]).

VPAC2 = conditions: cited from earlier work
From the text: as §4

MrgB3-receptor = conditions: ref Tatemoto et al., 2006; cited from earlier work
From the text: The exact mechanism of basic secretagogue-mediated mast cell degranulation remains unclear. […] However, this would require the ability of peptides, despite their positive charge, to diffuse across the membrane in order to reach intracellular G-proteins, and as this has not been shown, the hypothesis seems unlikely (Tat ...

migraine patients = conditions: migraineurs; ref Rahmann et al., 2008; cited from earlier work
From the text: as §4, with “[1993]). […] Degranulation of mast cells can be induced either by an allergen-IgE-dependent mechanism or via an IgE-independent mechanism. The latter mechanism can be activated by a group of molecules known as basic secretagogues.” for “[1993]).”

VPAC1-receptor = tested on: VPAC1-receptor; set-up: method as in Harmar et al., 2012; conditions: PACAP-38, PACAP-27 and VIP compared; ref Harmar et al., 2012; cited from earlier work
PAC1-receptor = conditions: relative to PACAP; ref Miyata et al., 1989, 1990; Harmar et al., 1998; cited from earlier work
From the text: Pituitary adenylate cyclase-activating peptide-38 (PACAP-38) is a 38-amino acid neuropeptide located in both sensory and parasympathetic perivascular nerve fibers (Moller et al., [1993]; Mulder et al., [1994]). A C-terminal truncated 27-amino acid (PACAP-27) version is endogenously present as well but is less abundant (Miyata et al., [1990]; Arimura et al., [1991]; Ogi et al., [1993]). […] At present, three PACAP-receptors have been identified: PA ... || Several different splice variants of the PAC1-receptor have been identified in rats. Splice sites in the extracellular N-terminal domain and the third intracellular loop account for fine tuning of ligand affinity and signal transduction through adenylate cyclase or PLC activation (Deutsch and Sun, [1992]; Spengler et al., [1993]).

VPAC2-receptor = tested on: VPAC2-receptor; set-up: method as in Harmar et al., 2012; conditions: PACAP-38, PACAP-27 and VIP compared; ref Harmar et al., 2012; cited from earlier work
[5] = tested on: calcitonin gene-related peptide (CGRP) release from the trigeminal nucleus caudalis; conditions: ref Jansen-Olesen et al., 2014; cited from earlier work
From the text: Future studies will have to rule out if MrgB3-receptors are involved in PACAP- ...

[6] = ref Spengler et al., 1993, Pantaloni et al., 1996

Substance | peritoneal mast cell degranulation (result in words) [1] | inhibition of PACAP-38 induced responses (result in words) ([2]; PACAP(6–38) 0.1 μM together with PACAP-38, one-way ANOVA, Tukey's test) | PACAP-38-induced current in presence of antagonist ([2]; PACAP(6–38) administered together with PACAP-38 in 0.1 μM, −70 mV, n = 10, mean ± SEM, PACAP-38 alone −0.18 ± 0.5 μA) [μA] | mast cell degranulation (rat meningeal mast cells; 10 μM, Figure 6A, PACAP(6–38) n = 7 (p < 0.0001), PACAP-38 n = 5, mean ± SEM) [%] | mast cell degranulation (result in words) (rat meningeal mast cells; 0.1 to 10 μM, 30 s, rat meningeal mast cells) | current ([3]; 0.1 μM alone, 1 min perfusion, −70 mV, Figure 6B, n = 9, mean ± SEM) [nA] | activation of PAC1-receptor / relative potency (result in words) ([3]; 0.01 to 1 μM, holding potential −70 mV) | activation of MrgB3-receptor (result in words) [4] | affinity to VPAC1-receptor (result in words) (VPAC1; ref Harmar et al., 2012) | affinity to VPAC2-receptor (result in words) (VPAC2; ref Harmar et al., 2012) | affinity to MrgB3-receptor (result in words) (MrgB3-receptor) | migraine attacks / headache after infusion (result in words) (migraine patients) | profile on VPAC1-receptor (result in words) (VPAC1-receptor) | binding to the PAC1-receptor, times lower than PACAP (PAC1-receptor) | profile on VPAC2-receptor (result in words) (VPAC2-receptor) | affinity to VPAC1 relative to PACAP (result in words) (VPAC1; [6]) | affinity to VPAC2 relative to PACAP (result in words) (VPAC2; [6]) | release of CGRP from the trigeminal nucleus caudalis (result in words) [5]
Pituitary Adenylate Cyclase Activating Peptide(6–38) (FTDSYSRYRKQMAVKKYLAAVLGKRYKQRVKNK; ends and bridges not checked; UniProt P18509 137-169, looked up, fragment) [PACAP(6–38), PAC1-receptor antagonist, custom synthetized by Caslo] | pronounced mast cell degranulation; also recorded: as potent as PACAP-38 | significantly antagonized; also recorded: significant inhibition of PACAP-38 induced responses | −0.05 ± 0.02 | 93 ± 2 | as potent as PACAP-38; also recorded: potent degranulator of rat meningeal mast cells | −5 ± 6 | unable to induce currents | agonistic effect on MrgB3-receptors expressed in oocytes; also recorded: equipotent to PACAP-38; also recorded: induce a significant current in MrgB3-receptor-expressing oocytes | has not been shown to have an affinity | has not been shown to have an affinity |  |  |  |  |  |  |  | 
[D-Trp^7,9,10]-substance P |  |  |  |  |  |  |  |  |  |  | affinity |  |  |  |  |  |  | 
vasoactive intestinal peptide [VIP] | not PACAP-27 and VIP, caused degranulation; also recorded: weak degranulating effect |  |  |  |  |  |  |  |  |  |  | only induces a mild headache and no migraine-like attacks in migraineurs; also recorded: does not provoke migraine headache | equipotent | 1,000 times | equipotent | equals that of PACAP | equals that of PACAP | neither VIP, PACAP-27 nor maxadilan, mediated the release
